Measured values taken from the NIST ThermoML archive (doi:10.1016/j.jct.2015.02.008).
Numbers after ± are expanded uncertainties.

Assays:
[1] = molar heat capacity at saturation pressure; details: Vacuum adiabatic calorimetry
[2] = Molar enthalpy of transition or fusion; details: Crystal; Adiabatic calorimetry

Oc1cccc2ccccc12 [1-naphthol]
molar heat capacity ([1]; 18.3 K, Crystal): 10.52 ± 0.075 J/K/mol
molar heat capacity ([1]; 20 K, Crystal): 12.18 ± 0.083 J/K/mol
molar heat capacity ([1]; 20.23 K, Crystal): 12.41 ± 0.083 J/K/mol
molar heat capacity ([1]; 22.38 K, Crystal): 14.54 ± 0.1 J/K/mol
molar heat capacity ([1]; 24.77 K, Crystal): 16.86 ± 0.11 J/K/mol
molar heat capacity ([1]; 27.44 K, Crystal): 19.4 ± 0.12 J/K/mol
molar heat capacity ([1]; 30 K, Crystal): 21.7 ± 0.067 J/K/mol
molar heat capacity ([1]; 30.38 K, Crystal): 22.03 ± 0.067 J/K/mol
molar heat capacity ([1]; 33.63 K, Crystal): 24.81 ± 0.075 J/K/mol
molar heat capacity ([1]; 37.26 K, Crystal): 27.77 ± 0.075 J/K/mol
molar heat capacity ([1]; 40 K, Crystal): 29.84 ± 0.075 J/K/mol
molar heat capacity ([1]; 41.28 K, Crystal): 30.77 ± 0.083 J/K/mol
molar heat capacity ([1]; 45.76 K, Crystal): 34.06 ± 0.083 J/K/mol
molar heat capacity ([1]; 50 K, Crystal): 36.83 ± 0.091 J/K/mol
molar heat capacity ([1]; 50.77 K, Crystal): 37.31 ± 0.091 J/K/mol
molar heat capacity ([1]; 51.97 K, Crystal): 38.07 ± 0.091 J/K/mol
molar heat capacity ([1]; 56.32 K, Crystal): 40.7 ± 0.1 J/K/mol
molar heat capacity ([1]; 56.46 K, Crystal): 40.78 ± 0.1 J/K/mol
molar heat capacity ([1]; 60 K, Crystal): 42.91 ± 0.1 J/K/mol
molar heat capacity ([1]; 61.85 K, Crystal): 43.99 ± 0.1 J/K/mol
molar heat capacity ([1]; 68.38 K, Crystal): 47.41 ± 0.11 J/K/mol
molar heat capacity ([1]; 70 K, Crystal): 48.25 ± 0.11 J/K/mol
molar heat capacity ([1]; 75.62 K, Crystal): 51.08 ± 0.12 J/K/mol
molar heat capacity ([1]; 80 K, Crystal): 53.33 ± 0.12 J/K/mol
molar heat capacity ([1]; 83.14 K, Crystal): 54.91 ± 0.12 J/K/mol
molar heat capacity ([1]; 90 K, Crystal): 58.16 ± 0.2 J/K/mol
molar heat capacity ([1]; 91.41 K, Crystal): 58.81 ± 0.2 J/K/mol
molar heat capacity ([1]; 100 K, Crystal): 62.77 ± 0.21 J/K/mol
molar heat capacity ([1]; 100.48 K, Crystal): 62.99 ± 0.21 J/K/mol
molar heat capacity ([1]; 110.08 K, Crystal): 67.46 ± 0.21 J/K/mol
molar heat capacity ([1]; 119.95 K, Crystal): 72.21 ± 0.21 J/K/mol
molar heat capacity ([1]; 120 K, Crystal): 72.23 ± 0.21 J/K/mol
molar heat capacity ([1]; 130.14 K, Crystal): 77.14 ± 0.22 J/K/mol
molar heat capacity ([1]; 140 K, Crystal): 82.08 ± 0.22 J/K/mol
molar heat capacity ([1]; 140.31 K, Crystal): 82.24 ± 0.22 J/K/mol
molar heat capacity ([1]; 150.42 K, Crystal): 87.34 ± 0.22 J/K/mol
molar heat capacity ([1]; 160 K, Crystal): 92.43 ± 0.22 J/K/mol
molar heat capacity ([1]; 160.43 K, Crystal): 92.66 ± 0.22 J/K/mol
molar heat capacity ([1]; 170.36 K, Crystal): 98.04 ± 0.23 J/K/mol
molar heat capacity ([1]; 180 K, Crystal): 103.34 ± 0.24 J/K/mol
molar heat capacity ([1]; 180.29 K, Crystal): 103.5 ± 0.24 J/K/mol
molar heat capacity ([1]; 190.33 K, Crystal): 109.13 ± 0.24 J/K/mol
molar heat capacity ([1]; 200 K, Crystal): 114.64 ± 0.25 J/K/mol
molar heat capacity ([1]; 200.45 K, Crystal): 114.9 ± 0.25 J/K/mol
molar heat capacity ([1]; 210.56 K, Crystal): 120.76 ± 0.26 J/K/mol
molar heat capacity ([1]; 220 K, Crystal): 126.26 ± 0.27 J/K/mol
molar heat capacity ([1]; 220.64 K, Crystal): 126.63 ± 0.27 J/K/mol
molar heat capacity ([1]; 230.69 K, Crystal): 132.62 ± 0.27 J/K/mol
molar heat capacity ([1]; 240 K, Crystal): 138.13 ± 0.27 J/K/mol
molar heat capacity ([1]; 240.71 K, Crystal): 138.54 ± 0.27 J/K/mol
molar heat capacity ([1]; 250.73 K, Crystal): 144.61 ± 0.28 J/K/mol
molar heat capacity ([1]; 260 K, Crystal): 150.24 ± 0.29 J/K/mol
molar heat capacity ([1]; 260.74 K, Crystal): 150.69 ± 0.29 J/K/mol
molar heat capacity ([1]; 270.62 K, Crystal): 156.67 ± 0.3 J/K/mol
molar heat capacity ([1]; 280 K, Crystal): 162.4 ± 0.31 J/K/mol
molar heat capacity ([1]; 280.51 K, Crystal): 162.71 ± 0.31 J/K/mol
molar heat capacity ([1]; 290.52 K, Crystal): 168.83 ± 0.31 J/K/mol
molar heat capacity ([1]; 298.15 K, Crystal): 173.51 ± 0.32 J/K/mol
molar heat capacity ([1]; 300 K, Crystal): 174.64 ± 0.32 J/K/mol
molar heat capacity ([1]; 300.53 K, Crystal): 174.97 ± 0.32 J/K/mol
molar heat capacity ([1]; 310.57 K, Crystal): 180.81 ± 0.32 J/K/mol
molar heat capacity ([1]; 320 K, Crystal): 186.29 ± 0.33 J/K/mol
molar heat capacity ([1]; 320.58 K, Crystal): 186.63 ± 0.33 J/K/mol
molar heat capacity ([1]; 331.02 K, Crystal): 192.65 ± 0.34 J/K/mol
molar heat capacity ([1]; 340 K, Crystal): 197.95 ± 0.34 J/K/mol
molar heat capacity ([1]; 341.47 K, Crystal): 198.62 ± 0.35 J/K/mol
molar heat capacity ([1]; 351.79 K, Crystal): 205.33 ± 0.35 J/K/mol
molar heat capacity ([1]; 360 K, Crystal): 210.16 ± 0.36 J/K/mol
molar heat capacity ([1]; 360.7 K, Crystal): 210.52 ± 0.36 J/K/mol
molar heat capacity ([1]; 368.49 K, Crystal): 215.56 ± 0.37 J/K/mol
molar heat capacity ([1]; 368.49 K, Liquid): 279.12 ± 0.44 J/K/mol
molar heat capacity ([1]; 375.44 K, Liquid): 281.15 ± 0.44 J/K/mol
molar heat capacity ([1]; 375.53 K, Liquid): 281.2 ± 0.44 J/K/mol
molar heat capacity ([1]; 380 K, Liquid): 282.47 ± 0.44 J/K/mol
molar heat capacity ([1]; 382.75 K, Liquid): 283.25 ± 0.44 J/K/mol
molar heat capacity ([1]; 389.88 K, Liquid): 285.37 ± 0.45 J/K/mol
molar heat capacity ([1]; 400 K, Liquid): 288.35 ± 0.45 J/K/mol
molar heat capacity ([1]; 405.81 K, Liquid): 290.05 ± 0.45 J/K/mol
molar heat capacity ([1]; 420 K, Liquid): 294.27 ± 0.46 J/K/mol
molar heat capacity ([1]; 423.59 K, Liquid): 295.34 ± 0.46 J/K/mol
molar heat capacity ([1]; 438.9 K, Liquid): 299.86 ± 0.47 J/K/mol
molar heat capacity ([1]; 440 K, Liquid): 300.19 ± 0.47 J/K/mol
Molar enthalpy of transition or fusion [2]: 5.798 ± 0.00741 kcal/mol
